The values below come from patent US9540428B2, “Extracellular matrix heparin-binding domains” (EPFL-TTO, priority 2012, dated 2017).

For one assay, the system named is SMC. The experiment in a line: Smooth muscle cell proliferation on modified TG-PEG gels with PDGF-BB. In kind it is cell-based. The procedure: Method: Three different gels were fabricated, unmodified PEG, and PEG gels modified with TNC III1-5 or FN III9*-10,TNC III1-5 (5 μM). Unbound fragment was washed from the gels. Sequentially, gels were incubated for 1 hour at 37° C. with 100 μL DMEM without PDGF-BB or with PDGF-BB (1 ng per gel). For one set of gels, the media containing PDGF-BB was removed and gels were washed for 1 hour at RT. Cells were added to each gel and a proliferation assay with Alamar Blue was performed at 72 hours.

In assay [1] the target is T1, binding of TNC III1-5 to cytokines (Homo sapiens, UniProt P24821).
T1 construct: factor Xa cleavage site (N); made in house; host or cells: HEK-293E
The experiment in a line: ELISA binding of TNC III1-5 to cytokines in presence of 4 μM heparin. Particulars: heparin 4 μM; 100 nM TNC III1-5. The procedure: ELISA plates were coated with cytokines or BSA and further incubated with TNC III1-5 to analyze binding of TNC III1-5 to a wide variety of cytokines. […] Results are depicted in FIG. 3. Method: 50 nM of cytokine was coated for (1 hr, 37° C.). After blocking with 2% BSA (1 hr, RT). 100 nM TNC III1-5 was applied in PBST (0.05% tween, 0.1% bovine serum albumin (BSA)) (1 hr, RT). TNC III1-5 was detected with horseradish peroxidase (HRP)-anti-HIS in PBST (1 hr, RT) and developed with 3,3′,5,5′-tetramethylbenzidine (TMB), a soluble colorimetric HRP […]. Addition of sulfuric acid stop solution changes the color to yellow, enabling accurate measurement of the intensity at 450 nm using a spectrophotometer or plate reader. […] Heparin (4 μM) was added to TNC III1-5 to test the effect of blocking the heparin binding site of TNC III1-5, which has been defined as domain TNC III5 (Weber, Zimmermann, et al., 1995).
For orientation: An ELISA detects its analyte on a solid surface through an enzyme-linked reagent.

In assay [2] the target is T2, binding of TNC III1-5 to the cytokines (Homo sapiens, UniProt P24821).
T2 construct: factor Xa cleavage site (N); made in house; host or cells: HEK-293E
T2 sequence (P24821 622-1074): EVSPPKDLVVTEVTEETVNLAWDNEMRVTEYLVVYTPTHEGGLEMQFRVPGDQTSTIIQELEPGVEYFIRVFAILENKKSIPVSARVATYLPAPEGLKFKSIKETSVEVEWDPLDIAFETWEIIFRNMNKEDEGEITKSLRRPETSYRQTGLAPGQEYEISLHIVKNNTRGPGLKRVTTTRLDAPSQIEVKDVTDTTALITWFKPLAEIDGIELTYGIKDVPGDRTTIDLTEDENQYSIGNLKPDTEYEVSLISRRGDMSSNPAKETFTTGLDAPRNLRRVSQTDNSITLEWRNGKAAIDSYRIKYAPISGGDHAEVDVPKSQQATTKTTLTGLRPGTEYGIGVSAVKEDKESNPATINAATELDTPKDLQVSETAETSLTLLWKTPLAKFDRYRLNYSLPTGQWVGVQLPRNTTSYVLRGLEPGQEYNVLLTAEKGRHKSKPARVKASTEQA
In words: Competition ELISA: TNC III1-5 binding to cytokines with gradient of full length tenascin or heparin. The settings on record: high concentrations of competitor; 10 nM TNC III1-5. The procedure:
ELISA plates were coated with cytokines or BSA and further incubated with TNC III1-5 in the presence of a gradient of full length tenascin or heparin to verify the specificity of the binding. […] TNC bound to the cytokines, making them unavailable for TNC III1-5, while heparin bound to TNC III1-5, blocking it to bind to the cytokines. Method: 50 nM of cytokine was coated for (1 hr, 37° C.). After blocking with 2% BSA (1 hr, RT). 10 nM TNC III1-5 was applied in PBST (0.05% tween, 0.1% bovine serum albumin (BSA)) (1 hr, RT) in the presence of a gradient of full length tenascin (0, 0.2, 0.6, 1.9, 5.6, 17, 50 nM) or heparin (0.01, 0.64, 3.2, 16, 80, 400, 2000, 10000). TNC III1-5 was detected with HRP-anti-HIS in PBST (1 hr, RT) and developed with TMB. Background values were obtained by applying each tenascin (0, 0.2, 0.6, 1.9, 5.6, 17, 50 nM) or heparin (0.01, 0.64, 3.2, 16, 80, 400, 2000, 10000) concentration to the cytokine without TNC III1-5, and were subtracted as normalization.
To verify specific binding of tenascin to the cytokines, tenascin (0, 0.1, 0.2, 0.6, 1.9, 5.6, 17, 50 nM) was incubated with PDGF-BB (50 nM) and BSA and detected with mouse anti-tenascin, HRP-anti-mouse, and TMB.

The test system of a further assay is HUVEC cells. The experiment in a line: HUVEC proliferation with cytokines with or without fibrinogen or Fg β15-66. Particulars: 72 hours; ≧100-fold molar excess; VEGF-A165, PlGF-2, FGF-2. It is filed as cell-based, human. The procedure:
To verify that cytokines bound to Fg β15-66 are still bioactive, the proliferation of HUVEC cells was tested for different cytokines with and without the presence of Fg β15-66. Method: HUVEC cells were stimulated with various cytokines: VEGF-A165, PlGF-2, and FGF-2 with or without fibrinogen or Fg β15-66 in excess (≧100-fold molar excess).

The subject of another assay is skin wounds. Particulars: applied topically for five consecutive days; 20 μg/wound VEGF-A165 or 10 μg/wound PDGF-BB; cited from earlier work.
Another assay addresses PDGF-BB (Homo sapiens, UniProt P01127). The experiment in a line: ELISA of individual TNC domains binding PDGF-BB. The procedure: An ELISA was performed to test the affinity of different domains present in TNC1-5 to PDGF-BB as an example cytokine that has shown to bind TNC III1-5. […] Method: ELISA plates were coated with individual TNC domains fused to GST, as well as GST and BSA. Wells were blocked with BSA and then incubated with 2 nM PDGF-BB. Binding of PDGF-BB was detected using an anti-PDGF-BB antibody and then a secondary horseradish peroxidase conjugated antibody.

With “FN III9*-10-TNC III1-5: fusion protein of fibronectin integrin binding domain FN III9*-10 and TNC III1-5 with TG substrate, SEQ ID NO:5”, the “SMC proliferation on top of a PEG gel, fusion vs TNC III1-5” value in the assay with SMC (addition of FN III9*-10 to TNC III1-5) is “significantly enhanced SMC proliferation”. Moreover, the “SMC proliferation on TG-PEG gels (2%)” value in the assay on SMC (in the presence of PDGF-BB, 5 μM fragment, 72 hours) is “enhanced SMC proliferation”.

For the molecule heparin, the “effect on binding of TNC III1-5 to cytokines” value in assay [1] was “impaired binding”. Moreover, the “competition of binding of TNC III1-5 to the cytokines” value in assay [2] was “competed away binding”. In the case of fibrinogen [reference compound], the “synergistic effect on HUVEC proliferation, cytokines plus protein vs cytokines alone” value with HUVEC cells is listed as “no synergistic effect”. As to “TNC: full length tenascin C, extracellular matrix glycoprotein, used as competitor”, the “competition of binding of TNC III1-5 to the cytokines” value in assay [2] was “competed away binding”.

B1: VEGF-A165: vascular endothelial growth factor, cytokine applied topically (protein)
chain: APMAEGGGQNHHEVVKFMDVYQRSYCHPIETLVDIFQEYPDEIEYIFKPSCVPLMRCGGCCNDEGLECVPTEESNITMQIMRIKPHQGQHIGEMSFLQHNKCECRPKKDRARQENPCGPCSERRKHLFVQDPQTCKCSCKNTDSRCKARQLELNERTCRCDKPRR
As to B1, the “efficacy in the db/db mouse” value in the assay with skin wounds is listed as “efficient”.

B2: TNC III5: fifth fibronectin type III domain of tenascin C, heparin-binding; tested as GST fusion (protein)
chain: LQVSETAETSLTLLWKTPLAKFDRYRLNYSLPTGQWVGVQLPRNTTSYVLRGLEPGQEYNVLLTAEKGRHKSKPARVKASTEQA
modifications: left off: a dimerising Fc or GST
notes: tested as GST fusion
Regarding B2, the “domain responsible for binding of PDGF-BB” value with PDGF-BB (GST-fused TNC domains coated, 2 nM PDGF-BB) is listed as “responsible for cytokine binding”.

B3: TNC III4-5: fibronectin type III domains 4-5 of tenascin C (protein)
chain: APRNLRRVSQTDNSITLEWRNGKAAIDSYRIKYAPISGGDHAEVDVPKSQQATTKTTLTGLRPGTEYGIGVSAVKEDKESNPATINAATELDTPKDLQVSETAETSLTLLWKTPLAKFDRYRLNYSLPTGQWVGVQLPRNTTSYVLRGLEPGQEYNVLLTAEKGRHKSKPARVKASTEQA
In the case of B3, the cytokine-binding entry with PDGF-BB (test not specified) was “demonstrated cytokine-binding”.

B4: PDGF-BB: platelet derived growth factor BB (REGRANEx®) applied topically (protein)
chain: SLGSLTIAEPAMIAECKTRTEVFEISRRLIDRTNANFLVWPPCVEVQRCSGCCNNRNVQCRPTQVQLRPVQVRKIEIVRKKPIFKKATVTLEDHLACKCETVAAARPVT
Consider B4, for which the “efficacy in the db/db mouse” value with skin wounds was “efficient”.
